Data published in patent publication US4130709A, “Pleuromutilin glycoside derivatives” (Eli Lilly and Company, priority 1977, dated 1978).
In brackets after ≈: the same amount, converted by molar mass.

Assays:
Pasteurella hemolytica = experiment: in vitro tests against Pasteurella hemolytica; format: cell-based
Treponema hyodysenteriae = experiment: in vitro agar plate test against Treponema hyodysenteriae; conditions: four days anaerobic
[1] = toxicity (LD50) on intraperitoneal injection in mice; conditions: mouse, in vivo, ip; intraperitoneal injection, mice
Spiroplasma citri = experiment: in vitro inhibition of Spiroplasma citri measured by a color reaction; format: cell-based; parameters: key to Activity (color reaction): Red (R) includes complete inhibition; red-orange (RO) indicates partial inhibition; yellow (Y) indicates no inhibition
Procedure: In another important aspect, the compounds of this invention are active against Spiroplasmas. Spiroplasma citri is the causative agent of citrus-stubborn disease; another Spiroplasma, corn-stunt Spiroplasma, affects the growth of corn. Table VII summarizes the in vitro activity of representative compounds of the present invention (R^2 =H in this group) against Spiroplasma citri. In this test, inhibition of S. citri is measured by a color reaction. Red (R) includes complete inhibition; red-orange (RO) indicates partial inhibition; and yellow (Y) indicates no inhibition.

Pseudomonas sp. (fish) = experiment: in vitro activity against Pseudomonas sp. (fish); format: cell-based
Source text: P. multocida, for example, is a causative agent of respiratory infection in cattle, poultry and swine. P. hemolytica is a major cause of respiratory disease in cattle. The activity of representative compounds of this invention (R^2 =H in group tested) against P. multocida and the Pseudomonas sp. is summarized in Table VI.

Eubacterium aerofaciens = experiment: standard agar-dilution test, anaerobic bacteria; format: cell-based; conditions: Collinsella aerofaciens; Eubacterium aerofaciens; 24-hour incubation; read-out: MIC
[2] = test system: Bacteroides melaninogenicus 2736; experiment: standard agar-dilution test, anaerobic bacteria; format: cell-based; conditions: Bacteroides melaninogenicus 2736; 24-hour incubation; read-out: MIC
[3] = test system: Pasteurella multocida (turkey); experiment: in vitro activity against Pasteurella multocida (turkey); format: cell-based
Source text: (§1) The activity of representative compounds of this invention (R^2 =H in group tested) against P. multocida and the Pseudomonas sp. is summarized in Table VI.

Actinomyces israelii = experiment: standard agar-dilution test, anaerobic bacteria; format: cell-based; conditions: 24-hour incubation
[4] = test system: Bacteroides thetaiotaomicron; experiment: standard agar-dilution test, anaerobic bacteria; format: cell-based; conditions: 24-hour incubation
Procedure: (§2) Table IV summarizes the activity of typical compounds of this invention, as determined by the standard agar-dilution test.
(§3) *Endpoint read after 24-hour incubation

Clostridium septicum = experiment: standard agar-dilution test, anaerobic bacteria; format: cell-based; conditions: 24-hour incubation
Procedure: as §2, §3

[5] = test system: Bacteroides fragilis 1936B; experiment: standard agar-dilution test, anaerobic bacteria; format: cell-based; conditions: Bacteroides fragilis 1936B; 24-hour incubation; read-out: MIC
[6] = test system: Peptococcus asaccharolyticus; experiment: standard agar-dilution test, anaerobic bacteria; format: cell-based; conditions: Peptoniphilus asaccharolyticus, 24-hour incubation
Peptococcus prevoti = experiment: standard agar-dilution test, anaerobic bacteria; format: cell-based; conditions: Peptococcus prevoti; 24-hour incubation; read-out: MIC
[7] = test system: Pasteurella multocida (bovine); experiment: in vitro activity against Pasteurella multocida (bovine); format: cell-based
Source text: as §1

[8] = test system: Fusobacterium necrophorum; experiment: standard agar-dilution test, anaerobic bacteria; format: cell-based; conditions: 24-hour incubation, read-out: MIC
[9] = test system: Bacteroides fragilis 1877; experiment: standard agar-dilution test, anaerobic bacteria; format: cell-based; conditions: Bacteroides fragilis 1877; 24-hour incubation; read-out: MIC
Clostridium perfringens = experiment: microbe, parasite or virus in culture; format: cell-based; conditions: 24 h
Fusobacterium symbiosum = experiment: standard agar-dilution test, anaerobic bacteria; format: cell-based; conditions: Fusobacterium symbiosum; 24-hour incubation; read-out: MIC
Bacteroides corrodens = experiment: standard agar-dilution test, anaerobic bacteria; format: cell-based; conditions: Eikenella corrodens; Bacteroides corrodens; 24-hour incubation; read-out: MIC
Bacteroides vulgatis = experiment: standard agar-dilution test, anaerobic bacteria; format: cell-based; conditions: Bacteroides vulgatis; 24-hour incubation; read-out: MIC
[10] = test system: Staphylococcus aureus (H-Heatley) NRRL B-314; experiment: in vitro turbidometric assay (Autoturb Microbiological Assay System) against Staphylococcus aureus; format: cell-based; conditions: nutrient broth pH 7, approximately 4 hours at 37° C., A-40104 factor A as standard
Procedure: The compounds are conveniently tested against a typical gram-positive organism, Staphylococcus aureus, using a turbidometric assay on a semi-automated system (Autoturb Microbiological Assay System, Elanco) described by N. R. Kuzel and F. W. Kavanagh in J. Pharmaceut. Sci, 60 (5), 764 and 767 (1971). In testing these compounds, the following parameters were used: Staphylococcus aureus (H-Heatley) NRRL B-314 in a nutrient broth medium (pH 7), incubated for approximately 4 hours at 37° C. Test samples and A-40104 factor A, which is used as a standard, were dissolved in water. The standard was presented to the Autoturb carrousel at concentrations of 1.25, 2.50, 3.75, 5.00 and 6.25 mcg/ml. Test compounds were diluted to contain approximately 2.5 to 5.0 mcg of activity per ml, as presented to the carrousel. The units of activity of some of the typical compounds of this invention (R^2 =H in group tested) in this in vitro assay are summarized in Table I

[11] = test system: Peptostreptococcus anaerobius; experiment: standard agar-dilution test, anaerobic bacteria; format: cell-based; conditions: 24-hour incubation
Bacteroides fragilis 111 = experiment: standard agar-dilution test, anaerobic bacteria; format: cell-based; conditions: Bacteroides fragilis 111; 24-hour incubation; read-out: MIC
[12] = test system: Bacteroides melaninogenicus 1856/28; experiment: standard agar-dilution test, anaerobic bacteria; format: cell-based; conditions: Prevotella intermedia; Bacteroides melaninogenicus 1856/28; 24-hour incubation; read-out: MIC
[13] = test system: Peptostreptococcus intermedius; experiment: standard agar-dilution test, anaerobic bacteria; format: cell-based; conditions: Peptostreptococcus intermedius; 24-hour incubation; read-out: MIC
Mycoplasma hyopneumoniae = experiment: in vitro broth-dilution studies, mycoplasma; format: cell-based; conditions: Mesomycoplasma hyopneumoniae
Source text: (§4) The minimal inhibitory concentrations (MIC's) of a number of typical compounds of the present invention (R^2 =H in group tested) against various mycoplasma species, as determined by in vitro broth-dilution studies, are summarized in Table V.

Mycoplasma synoviae = experiment: in vitro broth-dilution studies, mycoplasma; format: cell-based; conditions: Mycoplasmopsis synoviae
Source text: as §4

Mycoplasma gallisepticum = experiment: in vitro broth-dilution studies, mycoplasma; format: cell-based; conditions: Mycoplasmoides gallisepticum
Source text: as §4

Mycoplasma hyorhinis = experiment: in vitro broth-dilution studies, mycoplasma; format: cell-based
Source text: as §4

With `CC[C@]1(C)C[C@@H](OC(=O)CS[C@@H]2OC[C@@H](O)[C@H](O)[C@H]2O)[C@]2(C)[C@H](C)CC[C@]3(CCC(=O)[C@H]32)[C@@H](C)[C@@H]1O` the MIC (Pasteurella hemolytica) was 10.4 µg/mL (≈ 19.7 µM), the inhibition of growth (Treponema hyodysenteriae; 0.5 mcg/ml agar concentration) was “inhibited growth” and the inhibition of growth (Treponema hyodysenteriae; 5.0 mcg/ml agar concentration) was “inhibited growth”. The inhibition of growth (Treponema hyodysenteriae; 50 mcg/ml agar concentration) was “inhibited growth”, the LD50 [1] was over 1500 mg/kg and the MIC (Spiroplasma citri; Spiroplasma citri, in vitro, read-out: inhibits the growth of S. citri at levels as low as) was at least 0.01 µg/mL.
In the case of `C=C[C@]1(C)C[C@@H](OC(=O)CS[C@@H]2OC[C@@H](OC(C)=O)[C@H](OC(C)=O)[C@H]2OC(C)=O)[C@]2(C)[C@H](C)CC[C@]3(CCC(=O)[C@H]32)[C@@H](C)[C@@H]1O` [Compound 1, 14-deoxy-14-[(2,3,4-tri-O-acetyl-β-D-xylopyranosyl)thioacetoxy]mutilin], the MIC (Pseudomonas sp. (fish)) is reported as 12.5 µg/mL (≈ 19.1 µM), the MIC (Eubacterium aerofaciens) is reported as 16 µg/mL (≈ 24.5 µM) and the MIC [2] is reported as 2 µg/mL (≈ 3.06 µM). The MIC [3] was 50 µg/mL (≈ 76.6 µM), the MIC (Actinomyces israelii) was at most 0.5 µg/mL and the MIC [4] was 8 µg/mL (≈ 12.3 µM). For the same compound, the MIC (Clostridium septicum) was at most 0.5 µg/mL, the MIC [5] was 8 µg/mL (≈ 12.3 µM) and the MIC [6] was at most 0.5 µg/mL. The MIC (Peptococcus prevoti) was at most 0.5 µg/mL, the MIC [7] was under 50 µg/mL and the “Activity (color reaction)” value (Spiroplasma citri; 0.01 ppm) was “Y,RO”. The “Activity (color reaction)” value (Spiroplasma citri; 0.05 ppm) was “--,R”, the “Activity (color reaction)” value (Spiroplasma citri; 0.1 ppm) was “R,R” and the “Activity (color reaction)” value (Spiroplasma citri; 1.0 ppm) was “R,R”. The MIC [8] was at most 0.5 µg/mL, the MIC [9] was 4 µg/mL (≈ 6.13 µM) and the MIC (Clostridium perfringens) was 16 µg/mL (≈ 24.5 µM). The MIC (Fusobacterium symbiosum) was 4 µg/mL (≈ 6.13 µM), the MIC (Bacteroides corrodens) was 4 µg/mL (≈ 6.13 µM) and the MIC (Bacteroides vulgatis) was 4 µg/mL (≈ 6.13 µM). For the same compound, the “Units of Activity” value [10] was 568 to 579 µg/mg, the MIC [11] was at most 0.5 µg/mL and the MIC (Bacteroides fragilis 111) was 8 µg/mL (≈ 12.3 µM). For the same compound, the MIC [12] was over 128 µg/mL and the MIC [13] was at most 0.5 µg/mL.
Compound `CC[C@]1(C)C[C@@H](OC(=O)CS[C@@H]2OC[C@@H](OC(C)=O)[C@H](OC(C)=O)[C@H]2OC(C)=O)[C@]2(C)[C@H](C)CC[C@]3(CCC(=O)[C@H]32)[C@@H](C)[C@@H]1O` [Compound 6, 14-deoxy-14-[(2,3,4-tri-O-acetyl-β-D-xylopyranosyl)thioacetoxy]-19,20-dihydromutilin] has an MIC (Pseudomonas sp. (fish)) of 12.5 µg/mL (≈ 19.1 µM), an MIC (Eubacterium aerofaciens) of 16 µg/mL (≈ 24.4 µM) and an MIC [2] of 4 µg/mL (≈ 6.11 µM). The MIC [3] was under 50 µg/mL, the MIC (Actinomyces israelii) was 2 µg/mL (≈ 3.05 µM) and the MIC [4] was 8 µg/mL (≈ 12.2 µM). For the same compound, the MIC (Clostridium septicum) was 1 µg/mL (≈ 1.53 µM), the MIC [5] was 8 µg/mL (≈ 12.2 µM) and the MIC (Mycoplasma hyopneumoniae) was at most 0.15 µg/mL. For the same compound, the MIC (Mycoplasma synoviae) was 0.78 µg/mL (≈ 1.19 µM), the MIC (Mycoplasma gallisepticum) was 0.78 µg/mL (≈ 1.19 µM) and the MIC (Mycoplasma hyorhinis) was 0.39 µg/mL (≈ 0.596 µM). For the same compound, the MIC [6] was 4 µg/mL (≈ 6.11 µM), the MIC (Peptococcus prevoti) was 2 µg/mL (≈ 3.05 µM) and the MIC [7] was under 50 µg/mL. For the same compound, the “Activity (color reaction)” value (Spiroplasma citri; 0.01 ppm) was “RO”, the “Activity (color reaction)” value (Spiroplasma citri; 0.05 ppm) was “R” and the “Activity (color reaction)” value (Spiroplasma citri; 0.1 ppm) was “R”. The “Activity (color reaction)” value (Spiroplasma citri; 1.0 ppm) was “R”, the MIC [8] was 4 µg/mL (≈ 6.11 µM) and the MIC [9] was 2 µg/mL (≈ 3.05 µM). For the same compound, the MIC (Clostridium perfringens) was over 128 µg/mL, the MIC (Fusobacterium symbiosum) was 4 µg/mL (≈ 6.11 µM) and the MIC (Bacteroides corrodens) was 4 µg/mL (≈ 6.11 µM). The MIC (Bacteroides vulgatis) was 4 µg/mL (≈ 6.11 µM), the “Units of Activity” value [10] was 746 to 883 µg/mg and the MIC [11] was at most 0.5 µg/mL. The MIC (Bacteroides fragilis 111) was 2 µg/mL (≈ 3.05 µM), the MIC [12] was 2 µg/mL (≈ 3.05 µM) and the MIC [13] was 4 µg/mL (≈ 6.11 µM).
